We go through five compounds from publication PMC3894197, “Penam Sulfones and β-Lactamase Inhibition: SA2-13 and the Importance of the C2 Side Chain Length and Composition” (PLoS ONE, 2014).

In one test the test system is E. coli DH10B SHV-1. In words: Antimicrobial disc assay. It counts as cell-based, Escherichia coli. As to conditions: for Disc Assay Zone E. coli DH10B SHV-1: 10 µg ampicillin and 10 µg inhibitor, disc and ampicillin alone 6 mm. The procedure:
(§1) In brief, paper discs (6 mm diameter) were soaked with 10 µg inhibitor and 10 µg of ampicillin or cephalothin. Discs were placed on Mueller-Hinton (M-H) agar plates plated with 10^4–10^5 CFUs of Escherichia coli DH10B harboring SHV-1 or PDC-3 or E. coli ATCC 35218 containing TEM-1. Measured zone clearing diameters were used to determine susceptibility.
(§2) Supplementary file pone.0085892.s003.docx: Table S1 Antimicrobial disc assays. These assays were performed with 10 µg ampicillin and 10 µg inhibitor. The size of the disc and the ampicillin zone size alone is 6 mm. (DOCX) Click here for additional data file.

Test [1] has as its system E. coli ATCC 35218 containing TEM-1. In words: Antimicrobial disc assay. In kind it is cell-based, Escherichia coli. The note with it: 10 µg ampicillin and 10 µg inhibitor; disc and ampicillin alone 6 mm. The procedure:
as §1, §2

Another test deals with E. coli DH10B PDC-3. In words: Antimicrobial disc assay. As to conditions: for Disc Assay Zone E. coli DH10B PDC-3: 10 µg ampicillin and 10 µg inhibitor, disc and ampicillin alone 6 mm. In kind it is cell-based, Escherichia coli. The protocol: as §1, §2
Test [2] has as its target T1, SHV-1 (Klebsiella pneumoniae, UniProt P0AD64).
T1 construct: made in house
In words: IC50 by nitrocefin hydrolysis after pre-incubation of enzyme and inhibitor. It counts as biochemical. The protocol: (§3) Measurements were performed using glass cuvettes with 1 mL final volume in 1 mM phosphate-buffered saline (PBS) at pH 7.4 as previously described.

The target in test [3] is T1, SHV-1. In words: Partition ratio (turnover number, tn). In kind it is biochemical. As to conditions: SHV-1, 24 hour incubation, loss of >90% nitrocefin hydrolysis. The protocol: The partition ratio (turnover number, t n = k cat/k inact) or the partitioning of the initial enzyme-inhibitor complex between hydrolysis and enzyme inactivation was measured by incubating fixed enzyme concentrations with increasing amounts of inhibitor over a 24 hour period in a total volume of 100 µL as described. After 24 hours, a 20 µL aliquot of the incubation mix was removed and the steady-state hydrolysis of nitrocefin was measured and compared to an uninhibited control. The t n was determined as the inhibitor proportion that led to a loss of >90% of nitrocefin hydrolysis by the enzyme.

The target in another test is T2, wt SHV-1 (Klebsiella pneumoniae, UniProt P0AD64).
T2 construct: made in house
In words: biochemical. It counts as biochemical. The protocol:
as §3

Test [4] concerns the target T1, SHV-1. In words: Inactivation kinetics (kinact, KI, kinact/KI) with nitrocefin. It counts as biochemical. The procedure: kinact (the first-order rate constant of inactivation) was determined by monitoring the inactivation of the enzyme by increasing concentrations of inhibitor over a time course using 21 nM of enzyme and 100 µM of nitrocefin according to a previously published method. The k obs determined using Origin (OriginLab Corporation) to plot the reciprocal of the ordinate of the intersection of the straight lines obtained from the initial velocity of inhibition, v o, and the final velocity of inhibition, vf. Each k obs was plotted against the inhibitor concentration [I] and fit to equation 2 to calculate k inact and k inact/K I. [drawing 2] (2)

The next test deals with KPC-2. On the set-up: method as in PMID 22330909. As to conditions: the defined K i represents the K m used in Ke et al.; cited from earlier work.
The target in test [5] is T1, SHV-1. In words: Reactivation of β-lactamase (k obs react) after inhibitor/enzyme incubation. It counts as biochemical. As to conditions: SHV-1, 90:1 inhibitor:enzyme, 30 min incubation. The procedure: Then, unbound inhibitor was washed out with a Macro Spin Column G10 (The Nest Group). A competition assay was performed with 100 µM of nitrocefin and a 5 µL aliquot of the incubated mixture at three different time points (5, 30, and 1440 min) to determine the reactivation of the enzyme. Tazobactam kinetic profiles are included for comparison. EnzFitter™ (Biosoft) and Microsoft Excel were used to analyze the data.

The target of test [6] is T3, SHV K234R (Klebsiella pneumoniae, UniProt P0AD64, K230R).
T3 construct: GST (N, cleaved yes); made in house; host or cells: Origami2 (DE3) E. coli
In words: biochemical. It counts as biochemical. The procedure:
as §3

Test [7] concerns the target T3, SHV K234R. In words: Circular dichroism thermal denaturation. The note with it: CD at 208 nm, apo-K234R 48.2°C. The procedure: (§4) Circular dichroism (CD) was carried out on the SHV-1 and the SHV K234R proteins with and without SA2-13 and this is presented in Figure S1. In short, CD was performed on a JASCO J-815 spectrometer with a Peltier-effect temperature controller (GE Healthcare) as previously described. Quartz cells with a 0.1 cm pathlength were used for experiments (Hellma). Thermal denaturation was performed from 22–72°C with a heating rate of 2°C/min and raw data was corrected for the fraction of denatured protein (f u). The collected data at 208 nm was utilized to calculate a melting temperature (T m).

Test [8] addresses T1, SHV-1. In words: Circular dichroism thermal denaturation. The note with it: CD at 208 nm, apo-SHV-1 54.2°C. The protocol: as §4
Test [9] has as its target T1, SHV-1. As to conditions: cited from earlier work.

T2 sequence (P0AD64 22-286): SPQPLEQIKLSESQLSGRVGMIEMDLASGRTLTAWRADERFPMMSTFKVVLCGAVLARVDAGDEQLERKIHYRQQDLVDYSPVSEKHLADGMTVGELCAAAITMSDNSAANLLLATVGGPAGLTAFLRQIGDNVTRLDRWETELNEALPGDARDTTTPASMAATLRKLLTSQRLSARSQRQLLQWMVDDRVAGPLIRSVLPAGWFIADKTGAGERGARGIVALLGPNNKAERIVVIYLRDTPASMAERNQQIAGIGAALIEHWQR
T1 sequence (P0AD64 22-286): as above
T3 sequence (P0AD64 22-286 K230R): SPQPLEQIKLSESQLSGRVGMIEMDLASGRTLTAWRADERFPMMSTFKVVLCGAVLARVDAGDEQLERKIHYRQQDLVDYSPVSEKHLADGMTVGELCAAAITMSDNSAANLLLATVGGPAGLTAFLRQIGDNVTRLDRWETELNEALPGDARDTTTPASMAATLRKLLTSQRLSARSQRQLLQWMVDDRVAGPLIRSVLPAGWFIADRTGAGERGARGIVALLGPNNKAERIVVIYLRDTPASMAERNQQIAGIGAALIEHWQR

Consider `CC1(C(=O)OCC(N)=O)C(C(=O)O)N2C(=O)CC2S1(=O)=O` (centres unmarked) [PSR-3-226], for which the “Disc Assay Zone E. coli DH10B SHV-1” value with E. coli DH10B SHV-1 amounted to 6 mm. Also, the “Disc Assay Zone E. coli ATCC 35218 (TEM-1)” value in test [1] was determined as 12 mm. Besides, the “Disc Assay Zone E. coli DH10B PDC-3” value in the test with E. coli DH10B PDC-3 was 12 mm. For the same compound, in the test with E. coli DH10B PDC-3 (disc assay), the “microbial activity versus AmpC (PDC-3) expressed in E. coli DH10B” value is given as “had microbial activity”. The compound further showed an IC50 on SHV-1 [2] of 370 ± 30 nM. Further, at SHV-1 [3], the “t n 24h” value is on record as >1500. The Ki at wt SHV-1 was 2600 ± 300 nM; at SHV-1 [4], 1000 ± 100 nM. Besides, the “k inact/K I” value at SHV-1 [4] (SHV-1) was 60000 ± 10000 M⁻¹ s⁻¹. Also, the “K m against KPC-2” value in the test with KPC-2 is 3.8 ± 0.4 µM.
`CC1(COC(=O)CCC(=O)O)C(C(=O)O)N2C(=O)CC2S1(=O)=O` (centres unmarked) [PSR-4-155]: in the test on E. coli DH10B SHV-1, the “Disc Assay Zone E. coli DH10B SHV-1” value turned out to be 6 mm. Besides, the “Disc Assay Zone E. coli ATCC 35218 (TEM-1)” value in test [1] came to 13 mm. The “Disc Assay Zone E. coli DH10B PDC-3” value in the test on E. coli DH10B PDC-3 amounted to 6 mm. On SHV-1 [2], this compound had a 50% inhibitory concentration (IC50) of 440 ± 40 nM. In addition, the “t n 24h” value at SHV-1 [3] was >1500. The Ki on wt SHV-1 is 2700 ± 200 nM. Moreover, the “Ki fold higher compared to PSR-4-157” value on wt SHV-1 (SHV-1) is ~2 fold. The Ki on SHV-1 [4] was found to be 2100 ± 200 nM. Further, on SHV-1 [4] (SHV-1), the “KI fold higher compared to PSR-4-157” value was ~2 fold, the “k inact/K I” value was determined as 50000 ± 10000 M⁻¹ s⁻¹ and the “kinact/KI fold lower compared to PSR-4-157” value stood at 2 fold. For the same compound, the “k obs react 30 min” value on SHV-1 [5] is >0.2 s⁻¹.
As for `CC1(COC(=O)CCCCC(=O)O)C(C(=O)O)N2C(=O)CC2S1(=O)=O` (centres unmarked) [PSR-4-157], the “Disc Assay Zone E. coli DH10B SHV-1” value with E. coli DH10B SHV-1 is listed as 6 mm. For the same compound, in test [1], the “Disc Assay Zone E. coli ATCC 35218 (TEM-1)” value is reported as 11 mm. In addition, the “Disc Assay Zone E. coli DH10B PDC-3” value in the test with E. coli DH10B PDC-3 is recorded as 6 mm. The IC50 against SHV-1 [2] was found to be 160 ± 10 nM. The “fold higher IC50 compared to SA2-13” value on SHV-1 [2] (SHV-1) is 2 fold. Besides, the “t n 24h” value at SHV-1 [3] was >1500. Besides, the Ki at wt SHV-1 stood at 1700 ± 100 nM; at SHV-1 [4] it was 1000 ± 200 nM. Besides, the “k inact/K I” value on SHV-1 [4] (SHV-1) was 100000 ± 20000 M⁻¹ s⁻¹.
As to `C[C@]1(COC(=O)CCCC(=O)O)[C@H](C(=O)O)N2C(=O)C[C@H]2S1(=O)=O` [SA2-13], the “Disc Assay Zone E. coli DH10B SHV-1” value with E. coli DH10B SHV-1 is 6 mm. The “Disc Assay Zone E. coli ATCC 35218 (TEM-1)” value in test [1] was determined as 14 mm. In addition, in the test on E. coli DH10B PDC-3, the “Disc Assay Zone E. coli DH10B PDC-3” value turned out to be 6 mm. The compound also gave a half-maximal inhibitory concentration (IC50) on SHV-1 [2] of 81 ± 7 nM. Also, at SHV-1 [3], the “t n 24h” value came out at 120. The Ki at SHV K234R [6] was found to be 2100 ± 200 nM; on wt SHV-1, 1700 ± 100 nM; on SHV-1 [4] it was 190 ± 10 nM. The “fold increase of K i for K234R SHV relative to wt SHV-1” value on SHV K234R [6] (K234R vs wt SHV-1) worked out at 2 fold. Besides, the “k inact/K I” value at SHV-1 [4] (SHV-1) was found to be 370000 ± 60000 M⁻¹ s⁻¹. Besides, the “k obs react 30 min” value on SHV-1 [5] turned out to be 0.004 ± 0.001 s⁻¹. Also, the “melting temperature Tm of SHV K234R with inhibitor” value on SHV K234R [7] is “unaffected”; on SHV K234R [7] (listed as MN-2-261) it was 48.7 °C. Moreover, the “melting temperature Tm of SHV-1 with inhibitor” value at SHV-1 [8] is “unaffected”; on SHV-1 [8] (listed as MN-2-261), 54.5 °C. Moreover, the “k react fold decrease compared to tazobactam” value at SHV-1 [9] is recorded as “about 10 fold”.
Consider `C[C@]1(Cn2ccnn2)[C@H](C(=O)O)N2C(=O)C[C@H]2S1(=O)=O` [tazobactam, reference compound], for which, in the test with E. coli DH10B SHV-1, the “Disc Assay Zone E. coli DH10B SHV-1” value is 6 mm. Moreover, the “inhibition of SHV-1 expressing cells” value in the test on E. coli DH10B SHV-1 (DH10B E. coli, high SHV-1 expression) is listed as “Inhibition was not observed”. The “Disc Assay Zone E. coli ATCC 35218 (TEM-1)” value in test [1] was 21 mm. The “Disc Assay Zone E. coli DH10B PDC-3” value in the test on E. coli DH10B PDC-3 came to 14 mm. Besides, the “t n 24h” value on SHV-1 [3] worked out at 5. Moreover, the “k obs react 30 min” value on SHV-1 [5] is 0.040 ± 0.001 s⁻¹.
